As usually defined, the EC50 is the midpoint of the concentration-response curve. What is called CC50 is the concentration at which the toxic effect on the cells reaches its halfway point. The Ki is a dissociation constant, usually derived from enzyme kinetics or from competition with a known ligand.

Like-named read-outs stand apart in the source and are kept apart here. Some results are limits rather than exact numbers.

Results on 10 compounds are retold here after patent publication US6362166B1, “Antipicornaviral compounds and methods for their use and preparation” (Agouron Pharmaceuticals, Inc., priority 1996, dated 2002).

For series [1], the target named is T1, Recombinant Rhinovirus 3C protease (RVP) serotype 2 (Human rhinovirus 2, UniProt P04936).
T1 construct: Recombinant Rhinovirus 3C proteases from serotypes 14, 16, 2 or 89; made in house
T1 sequence (P04936 1508-1690): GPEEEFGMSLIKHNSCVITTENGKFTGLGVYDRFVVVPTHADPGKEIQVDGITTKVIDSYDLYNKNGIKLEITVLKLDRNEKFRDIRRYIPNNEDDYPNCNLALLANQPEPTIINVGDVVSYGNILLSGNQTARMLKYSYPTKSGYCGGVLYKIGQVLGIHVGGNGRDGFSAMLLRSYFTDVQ
The experiment in a line: Inhibition of Rhinovirus Protease (fluorescence resonance energy transfer assay), serotype 2. Conditions: progress curves in enzyme start experiments. In kind it is biochemical, human rhinovirus (HRV). How it is done: (§1) Stock solution (50 mM, in DMSO) of various compounds were prepared; dilutions were in the same solvent. Recombinant Rhinovirus 3C proteases from serotypes 14, 16, 2 or 89 were prepared by the following standard chromatographic procedures: (1) ion exchange using Q Sepharose Fast Flow from Pharmacia; (2) affinity chromatography using Affi-Gel Blue from Biorad; and (3) sizing using Sephadex G-100 from Pharmacia. Assays contained 2% DMSO, 50 mM tris pH 7.6, 1 mM EDTA, a compound at the indicated concentrations, approximately 1 μM substrate, and 50-100 nM protease. […] The kobs/I values were obtained from reactions initiated by addition of enzyme rather than substrate. RVP activity is measured in the fluorescence resonance energy transfer assay. The substrate was (N-terminal) DABCYL-([…]Gyl)-EDANS. In the uncleaved peptide, the EDANS fluorescence was quenched by the proximal DABCYL moeity. When the peptide was cleaved, the quenching was relieved, and activity was measured as an increase in fluorescence signal.
(§2) In the above table, all data is RVP serotype-14 unless otherwise noted in parentheses. All strains of human rhinovirus (HRV) were purchased from American Type Culture Collection (ATCC), except for serotype 14, which was produced from the infectious cDNA clone constructed and supplied to us by Dr. Roland Rueckert at the Institute for Molecular Virology, University of Wisconsin, Madison, Wisc. […] The data in the column designated kobs/I was measured from progress curves in enzyme start experiments.

Series [2] has as its target T2, Recombinant Rhinovirus 3C protease (RVP) serotype 16 (Human rhinovirus 16, UniProt Q82122).
T2 construct: Recombinant Rhinovirus 3C proteases from serotypes 14, 16, 2 or 89; made in house
The series can be described thus: Inhibition of Rhinovirus Protease (fluorescence resonance energy transfer assay), serotype 16. In kind it is biochemical, human rhinovirus (HRV). Conditions: RVP serotype 16; progress curves in enzyme start experiments. The protocol:
as §1, §2

In series [3] the target is T3, Recombinant Rhinovirus 3C protease (RVP) serotype-14 (Human rhinovirus 14, UniProt P03303).
T3 construct: Recombinant Rhinovirus 3C proteases from serotypes 14, 16, 2 or 89; made in house
T3 sequence (P03303 1538-1719): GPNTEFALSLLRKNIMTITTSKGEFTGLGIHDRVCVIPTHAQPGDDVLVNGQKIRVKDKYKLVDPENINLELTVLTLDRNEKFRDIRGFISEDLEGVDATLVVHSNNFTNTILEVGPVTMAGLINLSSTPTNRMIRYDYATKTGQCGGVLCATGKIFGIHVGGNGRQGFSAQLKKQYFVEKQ
The series can be described thus: Inhibition of Rhinovirus Protease (fluorescence resonance energy transfer assay), serotype 14. Conditions: RVP serotype-14; for kobs/I: progress curves in enzyme start experiments; for Ki: 10 minute preincubation, substrate start, read-out: INHIB (Ki). In kind it is biochemical, human rhinovirus (HRV).

In another series the test system is HRV-14. The series can be described thus: Antirhinoviral HI-HeLa Cell Culture Assay (Cell Protection Assay, XTT dye reduction). In kind it is cell-based, human rhinovirus (HRV) serotype-14. Conditions: HI-HeLa cells infected with HRV-14, m.o.i. 0.13; two days; XTT; read-out: EC50. The procedure, abridged: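 Protection measured via XTT dye reduction (450/650 nm) two days after compound treatment of HI-HeLa cells, mock-infected or infected with cDNA-derived HRV-14 at m.o.i. 0.13. CC50 divided by EC50 gives the therapeutic index.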

The next series relates to HI-HeLa cells. The series can be described thus: Cytotoxicity in mock-infected HI-HeLa cells (antirhinoviral assay, XTT). In kind it is cell-based. A general note: Tetrazolium assays rely on reduction of a dye to a coloured formazan, in cell work by metabolically active cells.
[4] abbreviates: mock-infected HI-HeLa cells, two days, XTT, read-out: CC50.

T2 sequence (Q82122 1511-1693): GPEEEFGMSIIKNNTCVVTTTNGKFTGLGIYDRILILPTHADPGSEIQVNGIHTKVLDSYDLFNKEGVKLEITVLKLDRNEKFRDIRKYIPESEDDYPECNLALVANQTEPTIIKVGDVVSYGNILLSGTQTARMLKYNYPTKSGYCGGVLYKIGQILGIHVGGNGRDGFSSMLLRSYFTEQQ

For `CCOC(=O)/C=C/[C@H](CCC(N)=O)NC(=O)[C@H](Cc1ccccc1)NC(=O)[C@@H](NC(=O)OCc1ccccc1)C(C)C` [Compound 146], the kobs/I in series [1] is given as 7,790 M-1 sec-1; in series [2], 16,900 M-1 sec-1; in series [3], 62,500 M-1 sec-1. The EC50 in the series with HRV-14 worked out at 0.38 µM. In the series on HI-HeLa cells, this compound returned a CC50 above 320 µM.

As to `CCOC(=O)/C=C/[C@H](CCC(N)=O)NC(=O)[C@H](Cc1ccc(F)cc1)NC(=O)[C@H](CC(C)C)NC(=O)OCc1ccccc1` [Compound 35, Ethyl-3-[CBZ-L-Leu-L-(4-F-Phe)-L-Gln]-E-Propenoate], the kobs/I in series [1] was 2,357 M-1 sec-1; in series [2], 9,177 M-1 sec-1; in series [3] it was 46,388 M-1 sec-1. For the same compound, the Ki in series [3] turned out to be 16.5 µM. In the series on HRV-14, the EC50 came out at 1.8 µM. Also, the CC50 in the series on HI-HeLa cells (setting [4]) is above 320 µM.

Regarding `CCOC(=O)/C=C/[C@H](CCC(N)=O)NC(=O)[C@H](CC1CCCCC1)NC(=O)[C@H](CC(C)C)NC(=O)OCc1ccccc1` [Compound 135], the kobs/I in series [1] was 671 M⁻¹ s⁻¹; in series [2], 3,465 M-1 sec-1; in series [3], 16,270 M-1 sec-1. The EC50 in the series on HRV-14 stood at 1.9 µM. Besides, the CC50 in the series on HI-HeLa cells (setting [4]) is above 320 µM.

Take `CCOC(=O)/C=C/[C@H](CCC(N)=O)NC(=O)[C@H](Cc1ccccc1)NC(=O)[C@H](CSCc1ccccc1)NC(=O)OCc1ccccc1` [Compound 165]: the kobs/I in series [1] is on record as 5,600 M-1 sec-1; in series [2] it was 20,200 M-1 sec-1; in series [3], 97,000 M-1 sec-1. Moreover, in the series with HRV-14, the EC50 turned out to be 0.2 µM. This compound also displayed a CC50 in the series with HI-HeLa cells above 100 µM.

Turning to `CCOC(=O)C=CC(CCC(N)=O)NC(=O)C(Cc1ccccc1)NC(=O)C(NC(=O)OCc1ccccc1)C(C)CC` (stereo not shown) [Compound 172], the values for the kobs/I in series [1], in series [2] and in series [3] were 2,000 M-1 sec-1, 6,000 M-1 sec-1 and 31,700 M-1 sec-1, respectively. Also, the EC50 with HRV-14 was determined as 0.79 µM. In the series with HI-HeLa cells, this compound yielded a CC50 above 100 µM.

With `CCOC(=O)/C=C/[C@H](CCC(N)=O)NC(=O)[C@H](Cc1ccccc1)NC(=O)[C@H](CC(=O)N(C)C)NC(=O)OCc1ccccc1` [Compound 158], the kobs/I in series [1] is 2,200 M-1 sec-1; in series [2] it was 6,400 M-1 sec-1; in series [3], 22,600 M-1 sec-1. Moreover, the Ki in series [3] was determined as 17 µM. Moreover, in the series with HRV-14, the half-maximal effective concentration (EC50) came to 5.9 µM. The CC50 in the series with HI-HeLa cells is above 320 µM.

As to `CCOC(=O)/C=C/[C@H](CCC(N)=O)NC(=O)[C@H](Cc1ccccc1)NC(=O)[C@@H](NC(=O)SCC)C(C)(C)C` [Compound 167, Ethyl-3-[Ethylthiocarbonyl-L-α-(t-Butyl-Gly)-L-Phe-L-Gln]-E-Propenoate], the kobs/I in series [1] was 10,700 M-1 sec-1; in series [2], 42,100 M-1 sec-1; in series [3] it was 165,400 M-1 sec-1. For the same compound, in the series with HRV-14, the EC50 is 0.083 µM. The compound further showed a CC50 in the series on HI-HeLa cells above 100 µM.

Regarding `CCOC(=O)/C=C/[C@H](CCC(N)=O)NC(=O)[C@H](Cc1ccccc1)NC(=O)[C@H](Cc1ccccc1)NC(=O)SCc1ccccc1` [Compound 161], the figures for the kobs/I in series [1], in series [2] and in series [3] were 200,000 M-1 sec-1, 126,000 M-1 sec-1 and 1,086,000 M-1 sec-1, respectively. In addition, in the series on HRV-14, the EC50 was 0.17 µM. Besides, in the series with HI-HeLa cells, the cytotoxic concentration (CC50) was above 100 µM.

Consider `CCOC(=O)/C=C/[C@H](CCC(N)=O)NC(=O)[C@H](Cc1ccccc1)NC(=O)[C@H](CC(C)C)NC(=O)SC(C)C` [Compound 170], for which the kobs/I in series [1] was 8,400 M-1 sec-1; in series [2], 30,000 M-1 sec-1; in series [3], 85,300 M-1 sec-1. In addition, in the series with HRV-14, the EC50 is 0.2 µM. The CC50 in the series with HI-HeLa cells is above 100 µM.

Consider `CCOC(=O)/C=C/[C@H](CCC(N)=O)NC(=O)[C@H](Cc1ccccc1)NC(=O)[C@H](CCc1ccccc1)NC(=O)SCc1ccccc1` [Compound 162], for which the kobs/I in series [1] is reported as 150,000 M-1 sec-1; in series [2], 80,000 M-1 sec-1; in series [3] it was 800,000 M-1 sec-1. Further, the EC50 with HRV-14 is 0.32 µM. In the series on HI-HeLa cells, this compound yielded a CC50 above 100 µM.
